A short description of this data set: Release study of agents from the gel. The data set is classed as physicochemical.
Setting [1] is: release from hydrogel composition #4, 10 h in PBS.

We go through 1 compound from patent US20230021329A1, “NANOSTRUCTURED BINARY GEL COMPOSITION AND USE THEREOF” (Veri Nano Inc., priority 2019, published 2023).

Experimental: 25 ml of PBS was added to each of the beakers. The beakers were put on a plate shaker (Delfia 1296-004) and shaken at the “low” setting for 10 h. The liquid was centrifuged at 21130 rcf for 10 min, and the supernatants were taken for analysis.
BSA Protein release from the nanoparticles was quantified via nanodrop spectrophotometer to determine the concentration of protein in the supernatant, after creating a nanoparticle pellet on centrifugation, all these after 10 hours of incubation in PBS at room temperature.
The concentration released of the Rhodamine B was determined by talking the supernatant after 10 h, centrifuged and diluted the solution by 10×. Subsequently, the absorbance was measured by using a plate reader (Varioskan Lux) and compared to a calibration curve.

Turning to `CCN(CC)c1ccc2c(-c3ccccc3C(=O)O)c3ccc(=[N+](CC)CC)cc-3oc2c1.[Cl-]` [Rhodamine B], under setting [1], the amount released is on record as 6.3 mg and the percent release turned out to be 5.7%. The same compound returned a concentration in supernatant (release from hydrogel composition #4, supernatant after 10 h, absorbance vs calibration curve) of 252 μ/ml.
